In ChEMBL document CHEMBL4251597, “Discovery and evolution of aloperine derivatives as a new family of HCV inhibitors with novel mechanism” (Eur J Med Chem, 2018):
Calls of active or inactive are those of the source. The calls are words filed in the database; no cut-off is given here.

How the values were obtained:
[1] = MRT in mouse at 25 mg/kg, po after 0.25 to 6 hrs; assay type: ADME, organism-based; conditions: in vivo
[2] = AUC (0 to t) in mouse at 25 mg/kg, po after 0.25 to 6 hrs; assay type: ADME, organism-based; parameters: time upper 6 hr, time lower 0.25 hr, dose 25 mg/kg, route oral; conditions: in vivo
Hepatitis C virus [3] = test: Antiviral activity against HCV J6/JFH/JC-1 infected in human Huh7.5 cells harboring […] S282T mutant assessed as inhibition of viral core protein levels at 20 uM treated with fresh media containing compound every 2 days by Western blot method; assay type: functional, organism-based; conditions: Hepacivirus hominis
Hepatitis C virus [4] = test: Antiviral activity against HCV J6/JFH/JC-1 infected in human Huh7.5 cells assessed as inhibition of NS3/4A levels at 10 uM treated with fresh media containing compound every 2 days in presence of NS5A inhibitor daclatasvir by Western blot method; assay type: functional, organism-based; conditions: Hepacivirus hominis
Hepatitis C virus [5] = test: Antiviral activity against HCV J6/JFH/JC-1 infected in human Huh7.5 cells assessed as inhibition of viral RNA replication after 72 hrs by qRT-PCR method; assay type: functional, organism-based, Hepacivirus hominis; conditions: J6/JFH/JC-1, Huh7.5, 72 h
Hepatitis C virus [6] = test: Antiviral activity against HCV J6/JFH/JC-1 infected in human Huh7.5 cells assessed as inhibition of viral core protein levels at 20 uM incubated for 2 to 24 hrs measured within 72 hrs by Western blot method; assay type: functional, organism-based; conditions: Hepacivirus hominis
Hepatitis C virus [7] = test: Antiviral activity against HCV J6/JFH/JC-1 infected in human Huh7.5 cells assessed as inhibition of NS3/4A protein levels at 0.5 uM by Western blot method; assay type: functional, organism-based; conditions: Hepacivirus hominis, TDE = time-dependent effect
Hepatitis C virus [8] = test: Antiviral activity against HCV J6/JFH/JC-1 infected in human Huh7.5 cells assessed as inhibition of viral core protein levels at 0.5 uM by Western blot method; assay type: functional, organism-based; conditions: Hepacivirus hominis, TDE = time-dependent effect
[9] = Half life in mouse at 25 mg/kg, po after 0.25 to 6 hrs; assay type: ADME, organism-based; conditions: in vivo
Hepatitis C virus [10] = test: Antiviral activity against HCV J6/JFH/JC-1 infected in human Huh7.5 cells assessed as inhibition of NS3/4A levels at 10 uM treated with fresh media containing compound every 2 days in presence of NS3/4A inhibitor simeprevir by Western blot method; assay type: functional, organism-based; conditions: Hepacivirus hominis
Hepatitis C virus [11] = test: Antiviral activity against HCV J6/JFH/JC-1 infected in human Huh7.5 cells assessed as inhibition of NS3/4A levels at 10 uM treated with fresh media containing compound every 2 days in presence of NS5B inhibitor sofosbuvir by Western blot method; assay type: functional, organism-based; conditions: Hepacivirus hominis
Hepatitis C virus [12] = test: Antiviral activity against HCV J6/JFH/JC-1 infected in human Huh7.5 cells assessed as inhibition of viral core protein levels at 10 uM treated with fresh media containing compound every 2 days in presence of NS5A inhibitor daclatasvir by Western blot method; assay type: functional, organism-based; conditions: Hepacivirus hominis
Hepatitis C virus [13] = test: Antiviral activity against HCV J6/JFH/JC-1 infected in human Huh7.5 cells assessed as inhibition of NS3/4A levels at 20 uM incubated for 2 to 24 hrs measured within 72 hrs by Western blot method; assay type: functional, organism-based; conditions: Hepacivirus hominis
Hepatitis C virus [14] = test: Antiviral activity against HCV J6/JFH/JC-1 infected in human Huh7.5 cells assessed as inhibition of NS3/4A S282T mutant levels at 20 uM treated with fresh media containing compound every 2 days by Western blot method; assay type: functional, organism-based; conditions: Hepacivirus hominis
[15] = Tmax in mouse at 25 mg/kg, po after 0.25 to 6 hrs; assay type: ADME, organism-based; conditions: in vivo
Hepatitis C virus [16] = test: Antiviral activity against HCV J6/JFH/JC-1 infected in human Huh7.5 cells assessed as inhibition of viral core protein levels after 72 hrs by Western blot method; assay type: functional, organism-based; conditions: Hepacivirus hominis
[17] = Cytotoxicity against human Huh7.5 cells after 72 hrs by MTT assay; assay type: cell-based
Hepatitis C virus [18] = test: Antiviral activity against HCV J6/JFH/JC-1 infected in human Huh7.5 cells assessed as inhibition of NS3/4A A156T mutant levels at 20 uM treated with fresh media containing compound every 2 days by Western blot method; assay type: functional, organism-based; conditions: Hepacivirus hominis
Hepatitis C virus [19] = test: Antiviral activity against HCV J6/JFH/JC-1 infected in human Huh7.5 cells assessed as inhibition of viral core protein levels at 10 uM treated with fresh media containing compound every 2 days in presence of NS3/4A inhibitor simeprevir by Western blot method; assay type: functional, organism-based; conditions: Hepacivirus hominis
[20] = Acute toxicity in po dosed Kunming mouse measured for 7 days; assay type: organism-based; conditions: in vivo
Hepatitis C virus [21] = test: Antiviral activity against HCV J6/JFH/JC-1 infected in human Huh7.5 cells assessed as inhibition of NS3/4A levels after 72 hrs by Western blot method; assay type: functional, organism-based; conditions: Hepacivirus hominis
[22] = Selectivity index, ratio of CC50 for human Huh7.5 cells to EC50 for HCV J6/JFH/JC-1; assay type: toxicity; conditions: read-out: Ratio CC50/EC50
Hepatitis C virus [23] = test: Antiviral activity against HCV infected in human GS4.3 cells assessed as inhibition of NS3/4A levels at 20 uM treated with fresh media containing compound every 2 days measured after 6 days by Western blot method; assay type: functional, organism-based; conditions: Hepacivirus hominis
Hepatitis C virus [24] = test: Antiviral activity against HCV J6/JFH/JC-1 infected in human Huh7.5 cells harboring NS3/4A D168V mutant assessed as inhibition of viral core protein levels at 20 uM treated with fresh media containing compound every 2 days by Western blot method; assay type: functional, organism-based; conditions: Hepacivirus hominis
Hepatitis C virus [25] = test: Antiviral activity against HCV J6/JFH/JC-1 infected in human Huh7.5 cells assessed as inhibition of NS3/4A D168V mutant levels at 20 uM treated with fresh media containing compound every 2 days by Western blot method; assay type: functional, organism-based; conditions: Hepacivirus hominis
Hepatitis C virus [26] = test: Antiviral activity against HCV J6/JFH/JC-1 infected in human Huh7.5 cells assessed as inhibition of viral core protein levels at 10 uM treated with fresh media containing compound every 2 days in presence of NS5B inhibitor sofosbuvir by Western blot method; assay type: functional, organism-based; conditions: Hepacivirus hominis
Hepatitis C virus [27] = test: Antiviral activity against HCV J6/JFH/JC-1 infected in human Huh7.5 cells harboring NS3/4A A156T mutant assessed as inhibition of viral core protein levels at 20 uM treated with fresh media containing compound every 2 days by Western blot method; assay type: functional, organism-based; conditions: Hepacivirus hominis
Hepatitis C virus [28] = test: Antiviral activity against HCV infected in human GS4.3 cells assessed as inhibition of viral core protein levels at 20 uM treated with fresh media containing compound every 2 days measured after 6 days by Western blot method; assay type: functional, organism-based; conditions: Hepacivirus hominis
Hepatitis C virus [29] = test: Antiviral activity against HCV J6/JFH/JC-1 infected in human Huh7.5 cells assessed as inhibition of viral core protein levels at 20 uM preincubated for 2 hrs followed addition of Huh7.5 cells for 4 hrs measured within 72 hrs by Western blot method; assay type: functional, organism-based; conditions: Hepacivirus hominis
Hepatitis C virus [30] = test: Antiviral activity against 22.5 to 90 IU/cell of HCV J6/JFH/JC-1 infected in human Huh7.5 cells assessed as inhibition of viral core protein levels at 20 uM treated with fresh media containing compound every 2 days by Western blot method; assay type: functional, organism-based; conditions: Hepacivirus hominis
[31] = Cmax in mouse at 25 mg/kg, po after 0.25 to 6 hrs; assay type: ADME, organism-based; parameters: dose 25 mg/kg, route oral; conditions: in vivo
[32] = target: Hepatitis C virus serine protease, NS3/NS4A (Hepatitis C virus) (UniProt D2K2A8+A3EZI9); test: Inhibition of HCV NS3/4A protease at 200 uM; assay type: protein-complex assay; conditions: Hepacivirus hominis
Hepatitis C virus [33] = test: Antiviral activity against 22.5 to 90 IU/cell of HCV J6/JFH/JC-1 infected in human Huh7.5 cells assessed as inhibition of NS3/4A levels at 20 uM treated with fresh media containing compound every 2 days by Western blot method; assay type: functional, organism-based; conditions: Hepacivirus hominis
Hepatitis C virus [34] = test: Antiviral activity against HCV J6/JFH/JC-1 infected in human Huh7.5 cells assessed as inhibition of NS3/4A levels at 20 uM preincubated for 2 hrs followed addition of Huh7.5 cells for 4 hrs measured within 72 hrs by Western blot method; assay type: functional, organism-based; conditions: Hepacivirus hominis

In the case of `CN1CCN(S(=O)(=O)N2CCCC3=C[C@H]4C[C@H](CN5CCCC[C@H]45)[C@@H]32)CC1`, the MRT [1] is reported as 6.11 h, the AUC(0-t) [2] is reported as 7.6 µM·h and the inhibition (Hepatitis C virus [3]) is reported as “Active”. For the same compound, the inhibition (Hepatitis C virus [4]) was “Active”, the EC50 (Hepatitis C virus [5]) was 3.56 µM and the inhibition (Hepatitis C virus [6]) was “Active”. For the same compound, the inhibition (Hepatitis C virus [7]) was “Tde”, the inhibition (Hepatitis C virus [8]) was “Tde” and the half-life [9] was 9.47 h. The inhibition (Hepatitis C virus [10]) was “Active”, the inhibition (Hepatitis C virus [11]) was “Active” and the inhibition (Hepatitis C virus [12]) was “Active”. The inhibition (Hepatitis C virus [13]) was “Active”, the inhibition (Hepatitis C virus [14]) was “Active” and the Tmax [15] was 1 h. For the same compound, the inhibition (Hepatitis C virus [16]) was “Dose-dependent effect”, the CC50 at 72 h [17] was greater than 500 µM and the inhibition (Hepatitis C virus [18]) was “Active”. For the same compound, the inhibition (Hepatitis C virus [19]) was “Active”, the LD50 at 168 h [20] was greater than 1000 mg/kg and the inhibition (Hepatitis C virus [21]) was “Dose-dependent effect”. The selectivity ratio [22] was greater than 140, the inhibition (Hepatitis C virus [23]) was “Active” and the inhibition (Hepatitis C virus [24]) was “Active”. The inhibition (Hepatitis C virus [25]) was “Active”, the inhibition (Hepatitis C virus [26]) was “Active” and the inhibition (Hepatitis C virus [27]) was “Active”. For the same compound, the inhibition (Hepatitis C virus [28]) was “Active”, the inhibition (Hepatitis C virus [29]) was “Active” and the inhibition (Hepatitis C virus [30]) was “Active”. The Cmax [31] was 1370 nM, the inhibition [32] was “inactive” and the inhibition (Hepatitis C virus [33]) was “Active”. For the same compound, the inhibition (Hepatitis C virus [34]) was “Active”.
